A word on the inhibition: it is the relative decrease from the control value, in per cent.

The source of these data is US10364222B2, “Cyclic amine derivative and medical use thereof” (Toray Industries, Inc., priority 2016, dated 2019).

In assay [1] the target is T1, ligand-binding domain of RORγ (RORγ-LBD) (Homo sapiens, UniProt P51449).
T1 construct: purchased Invitrogen
T1 sequence (P51449 269-508 limits assumed): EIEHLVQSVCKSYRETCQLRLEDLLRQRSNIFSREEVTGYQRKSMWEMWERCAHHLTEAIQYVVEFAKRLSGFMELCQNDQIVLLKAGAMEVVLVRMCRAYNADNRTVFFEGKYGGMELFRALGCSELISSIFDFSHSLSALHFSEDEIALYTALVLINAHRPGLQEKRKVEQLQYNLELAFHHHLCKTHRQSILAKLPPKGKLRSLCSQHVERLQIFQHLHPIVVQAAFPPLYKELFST
Kind of assay: Inhibitory effect on RORγ-coactivator binding (LanthaScreen TR-FRET RORγ Coactivator Assay). The following applies: at 33 μmol/L of the test compound; read-out: RORγ-coactivator binding inhibition rate (%). How it is done: The inhibitory effect of the cyclic amine derivative (I) or a pharmacologically acceptable salt thereof on the binding between a ligand-binding domain of RORγ (hereinafter referred to as RORγ-LBD) and a coactivator was evaluated using Invitrogen's LanthaScreen™TR-FRET Retinoid-Related Orphan Receptor (ROR) gamma Coactivator Assay kit utilizing time-resolved fluorescence energy transfer (TR-FRET).
The test compound was dissolved in DMSO and diluted with TR-FRET Coregulator Buffer D (Invitrogen) containing 5 mmol/L of DTT to have a final DMSO concentration of 1% before use. To each well of a 384-well black plate (Corning Inc.), 4 nmol/L of GST-fused RORγ-LBD (Invitrogen) diluted with the buffer mentioned above and the test compound were added. A well without addition of the test compound and without addition of GST-fused RORγ-LBD (background) and a well without addition of the test compound and with addition of GST-fused RORγ-LBD (control) were prepared. Next, 150 nmol/L of fluorescein-labeled TRAP220/DRIP-2 (Invitrogen) diluted with the buffer mentioned above and 32 nmol/L of terbium-labeled anti-GST antibody (Invitrogen) were added to each well. After incubating the plate at room temperature for 16 to 24 hours, the fluorescence at 495 nm and 520 nm when excited at 320 nm was measured for each well and the ratio (fluorescence value at 520 nm/fluorescence value at 495 nm) was calculated.
The fold change with addition of the test compound (ratio with addition of the test compound/ratio of the background), the fold change of the control (ratio of the control/ratio of the background), and the fold change of the background (ratio of the background/ratio of the background) were calculated, and then the inhibition rate of binding between RORγ-LBD and a coactivator (hereinafter referred to as RORγ-coactivator binding inhibition rate) (%) was calculated from Formula 1: RORγ-coactivator binding inhibition rate(%)=(1−((Fold change with addition of the test compound)−(Fold change of the background))/((Fold change of the control)−(Fold change of the background)))×100 Formula 1
(Time-resolved FRET reads energy transfer from a long-lived donor to a nearby acceptor.)

The test system of assay [2] is IL-17 production in mouse splenocytes. The assay can be described thus: Suppressive effect on IL-17 production by IL-23 stimulation in mouse splenocytes. It is filed as cell-based. The following applies: Splenocyte, 72 h, at 5 μmol/L of the test compound, 10 ng/mL human IL-23, 3 days, read-out: IL-17 production inhibition rate (%). How it is done:
Using mouse splenocytes, the suppressive effect of the cyclic amine derivative (I) or a pharmacologically acceptable salt thereof on IL-17 production by IL-23 stimulation was evaluated by a partially modified method mentioned in The Journal of Biological Chemistry, 2003, Vol. 278, No. 3, p. 1910-1914.
A single cell suspension was prepared from the spleen of C57BL/6J mice (male, 7 to 23 weeks old) (Charles River Laboratories Japan, Inc.) and splenocytes were prepared using Histopaque-1083 (Sigma-Aldrich Japan). The culture medium was used by adding 10% FBS (Gibco), 50 U/mL of penicillin 50 μg/mL of streptomycin (Gibco), 50 μmol/L of 2-mercaptoethanol (Gibco), and 100 U/mL of human IL-2 (Cell Science & Technology Institute, Inc.) to RPMI1640 medium (Gibco). The test compound was dissolved in DMSO and then diluted with the culture medium to have a final concentration of DMSO of 0.1% before use. Splenocytes (3×10^5 cells/well) prepared in the culture medium were seeded in wells of a 96-well flat-bottom plate (Corning Incorporated), the test compound and 10 ng/mL of human IL-23 (R & D systems, Inc.) were added thereto, and the cells were cultured at 37° C. under 5% CO2 for 3 days. A well without addition of human IL-23 and without addition of the test compound and a well with addition of human IL-23 and without addition of the test compound were prepared. After completion of the culture, the culture supernatant was collected and the IL-17 production amount in the supernatant was determined by ELISA method (R & D systems, Inc.).
The IL-17 production inhibition rate (%) was calculated from Formula 2. IL-17 production inhibition rate(%)=(1−((IL-17 production amount with addition of IL-23 and with addition of the test compound)−(IL-17 production amount without addition of IL-23 and without addition of the test compound))/((IL-17 production amount with addition of IL-23 and without addition of the test compound)−(IL-17 production amount without addition of IL-23 and without addition of the test compound)))×100 Formula 2

On to `O=C(Nc1ccc(-c2ccccc2OC(F)(F)F)c(Cl)c1)C1CCCCN1C(=O)COC(F)(F)F` (centres unmarked) [Example 8, N-(2-chloro-2′-(trifluoromethoxy)-[1,1′-biphenyl]-4-yl)-1-(2-(trifluoromethoxy)acetyl)piperidine-2-carboxamide], for which the inhibition at 33 µM in assay [1] is 95.2%. Also, in assay [2], the inhibition at 5 µM stood at 99.2%.

For the compound `NC(=O)N1CCCC[C@@H]1C(=O)Nc1ccc(-c2ccccc2OC(F)(F)F)c(Cl)c1` [Example 22, (R)-N^2-(2-chloro-2′-(trifluoromethoxy)-[1,1′-biphenyl]-4-yl)piperidine-1,2-dicarboxamide], in assay [1], the inhibition at 33 µM amounted to 92.4%. Besides, in assay [2], the inhibition at 5 µM came to 98.1%.

Turning to `CC(=O)N1CCCCC1C(=O)Nc1ccc(-c2ccccc2OC(F)(F)F)c(Cl)c1` (centres unmarked) [Example 1, 1-acetyl-N-(2-chloro-2′-(trifluoromethoxy)-[1,1′-biphenyl]-4-yl)piperidine-2-carboxamide], the inhibition at 33 µM in assay [1] turned out to be 90.9%. In assay [2], the inhibition at 5 µM was determined as 94%.

As for `CS(=O)(=O)N1CCCCC1C(=O)Nc1ccc(-c2ccccc2OC(F)(F)F)c(Cl)c1` (centres unmarked) [Example 15, N-(2-chloro-2′-(trifluoromethoxy)-[1,1′-biphenyl]-4-yl)-1-(methylsulfonyl)piperidine-2-carboxamide], the inhibition at 33 µM in assay [1] stood at 100%. In assay [2], the inhibition at 5 µM was determined as 99.4%.

Turning to `O=C(Nc1ccc(-c2ccccc2OC(F)(F)F)c(Cl)c1)C1CCCCN1C(=O)CCO` (centres unmarked) [Example 42, N-(2-chloro-2′-(trifluoromethoxy)-[1,1′-biphenyl]-4-yl)-1-(3-hydroxypropanoyl)piperidine-2-carboxamide], the inhibition at 33 µM in assay [1] was 92.8%. The inhibition at 5 µM in assay [2] was found to be 99.8%.

Take `O=C(Nc1ccc(-c2ccccc2OC(F)(F)F)c(Cl)c1)[C@H]1CCCCN1C(=O)CCn1ccnc1` [Example 59, (R)-1-(3-(1H-imidazol-1-yl)propanoyl)-N-(2-chloro-2′-(trifluoromethoxy)-[1,1′-biphenyl]-4-yl)piperidine-2-carboxamide]: in assay [1], the inhibition at 33 µM came out at 95.5%. Also, in assay [2], the inhibition at 5 µM came out at 99.8%.

For `Cc1cc(C)n(CC(=O)N2CCCCC2C(=O)Nc2ccc(-c3ccccc3OC(F)(F)F)c(Cl)c2)n1` (centres unmarked) [Example 55, 1-(2-(3,5-dimethyl-1H-pyrazol-1-yl)acetyl)-N-(2-chloro-2′-(trifluoromethoxy)-[1,1′-biphenyl]-4-yl)piperidine-2-carboxamide], the inhibition at 33 µM in assay [1] is 104%. The inhibition at 5 µM in assay [2] worked out at 99.7%.

Turning to `CCC(=O)N1CCCCC1C(=O)Nc1ccc(-c2ccccc2OC(F)(F)F)c(Cl)c1` (centres unmarked) [Example 3, N-(2-chloro-2′-(trifluoromethoxy)-[1,1′-biphenyl]-4-yl)-1-propionylpiperidine-2-carboxamide], the inhibition at 33 µM in assay [1] amounted to 88.2%. Also, the inhibition at 5 µM in assay [2] was determined as 98.6%.

On to `COCC(=O)N1CCCCC1C(=O)Nc1ccc(-c2ccccc2OC(F)(F)F)c(Cl)c1` (centres unmarked) [Example 4, N-(2-chloro-2′-(trifluoromethoxy)-[1,1′-biphenyl]-4-yl)-1-(2-methoxyacetyl)piperidine-2-carboxamide], for which the inhibition at 33 µM in assay [1] came to 90.3%. Moreover, the inhibition at 5 µM in assay [2] turned out to be 99.7%.

Consider `Cc1cc(CC(=O)N2CCCCC2C(=O)Nc2ccc(-c3ccccc3OC(F)(F)F)c(Cl)c2)on1` (centres unmarked) [Example 56, 1-(2-(3-methylisoxazol-5-yl)acetyl)-N-(2-chloro-2′-(trifluoromethoxy)-[1,1′-biphenyl]-4-yl)piperidine-2-carboxamide], for which the inhibition at 33 µM in assay [1] is 104%. In addition, the inhibition at 5 µM in assay [2] came to 107%.

As for `CS(=O)(=O)N1CCC(F)(F)C[C@@H]1C(=O)Nc1ccc(-c2ccccc2OC(F)(F)F)c(Cl)c1` [Example 28, (R)-N-(2-chloro-2′-(trifluoromethoxy)-[1,1′-biphenyl]-4-yl)-4,4-difluoro-1-(methylsulfonyl)piperidine-2-carboxamide], the inhibition at 33 µM in assay [1] came out at 101%. Besides, the inhibition at 5 µM in assay [2] is 98.6%.

As to `CS(=O)(=O)NCC(=O)N1CCCCC1C(=O)Nc1ccc(-c2ccccc2OC(F)(F)F)c(Cl)c1` (centres unmarked) [Example 10, N-(2-chloro-2′-(trifluoromethoxy)-[1,1′-biphenyl]-4-yl)-1-(2-(methylsulfonamide)acetyl)piperidine-2-carboxamide], the inhibition at 33 µM in assay [1] amounted to 100%. For the same compound, the inhibition at 5 µM in assay [2] was 98.6%.

Regarding `CN(C)C(=O)N1CCCCC1C(=O)Nc1ccc(-c2ccccc2OC(F)(F)F)c(Cl)c1` (centres unmarked) [Example 18, N^2-(2-chloro-2′-(trifluoromethoxy)-[1,1′-biphenyl]-4-yl)-N^1,N^1-dimethylpiperidine-1,2-dicarboxamide], in assay [1], the inhibition at 33 µM was 95.9%. In addition, the inhibition at 5 µM in assay [2] worked out at 90.8%.

On to `CS(=O)(=O)NCCC(=O)N1CCCCC1C(=O)Nc1ccc(-c2ccccc2OC(F)(F)F)c(Cl)c1` (centres unmarked) [Example 32, N-(2-chloro-2′-(trifluoromethoxy)-[1,1′-biphenyl]-4-yl)-1-(3-(methylsulfonamide)propanoyl)piperidine-2-carboxamide], for which the inhibition at 33 µM in assay [1] stood at 94.7%. Moreover, in assay [2], the inhibition at 5 µM was 98.8%.

Take `O=C(Nc1ccc(-c2ccccc2OC(F)(F)F)c(Cl)c1)C1CCCCN1C(=O)C(F)(F)F` (centres unmarked) [Example 2, N-(2-chloro-2′-(trifluoromethoxy)-[1,1′-biphenyl]-4-yl)-1-(2,2,2-trifluoroacetyl)piperidine-2-carboxamide]: in assay [1], the inhibition at 33 µM was found to be 91.9%. Further, in assay [2], the inhibition at 5 µM worked out at 96.2%.

On to `O=C(Nc1ccc(-c2ccccc2OC(F)(F)F)c(Cl)c1)[C@H]1CCCCN1C(=O)C(F)(F)F` [Example 23, (R)-N-(2-chloro-2′-(trifluoromethoxy)-[1,1′-biphenyl]-4-yl)-1-(2,2,2-trifluoroacetyl)piperidine-2-carboxamide], for which the inhibition at 33 µM in assay [1] is 98.4%. Besides, the inhibition at 5 µM in assay [2] was 99.4%.

On to `O=CN1CCCCC1C(=O)Nc1ccc(-c2ccccc2OC(F)(F)F)c(Cl)c1` (centres unmarked) [Example 16, N-(2-chloro-2′-(trifluoromethoxy)-[1,1′-biphenyl]-4-yl)-1-formylpiperidine-2-carboxamide], for which, in assay [1], the inhibition at 33 µM was 99.3%. In assay [2], the inhibition at 5 µM amounted to 98%.

Take `CN(CC(=O)N1CCCCC1C(=O)Nc1ccc(-c2ccccc2OC(F)(F)F)c(Cl)c1)S(C)(=O)=O` (centres unmarked) [Example 13, N-(2-chloro-2′-(trifluoromethoxy)-[1,1′-biphenyl]-4-yl)-1-(2-(N-methylmethylsulfonamide)acetyl)piperidine-2-carboxamide]: the inhibition at 33 µM in assay [1] worked out at 101%. In assay [2], the inhibition at 5 µM amounted to 98.2%.

In the case of `O=C(Nc1ccc(-c2ccccc2OC(F)(F)F)c(Cl)c1)[C@H]1CCCCN1C(=O)Cn1nccn1` [Example 66, (R)-1-(2-(2H-1,2,3-triazol-2-yl)acetyl)-N-(2-chloro-2′-(trifluoromethoxy)-[1,1′-biphenyl]-4-yl)piperidine-2-carboxamide], in assay [1], the inhibition at 33 µM was found to be 103%. Besides, the inhibition at 5 µM in assay [2] was determined as 99.5%.
